Like-named read-outs stand apart in the source and are kept apart here.

Data set [1] in a line: Plasma concentrations and pharmacokinetic parameters after topical ocular, subcutaneous and intravitreal administration. The format is in vivo, New Zealand White rabbits. Particulars: plasma, plasma; for AUC(0-t): read-out: AUClast (± SE); for concentration at 0.5 hr: 0.50 hr. On the procedure: To measure the concentration of Compound 1 in plasma and ocular tissues following topical ocular, subcutaneous, and intravitreal administration, New Zealand White rabbits were administered Compound 1, and plasma and ocular samples were collected at pre-determined time points. Compound 1 formulations were prepared fresh on each day of dosing.
New Zealand White rabbits weighing 2.5 to 3.5 kg were used on this study. Rabbits were housed one per cage. Animals were not fasted and only healthy animals with no ocular illness were used. Two rabbits per group were sacrificed at each of four ocular tissue sampling time points for a total of eight rabbits per group.
Animals were anesthetized for ocular (topical) and intravitreal dosing following the 12IA7 IACUC protocol. Each rabbit received a bolus dose of test formulation either via topical ocular administration 3 times daily on Days 1 and 2 (at 0, 6, and 12 hours), and once on Day 3 (at 0 hours) into both eyes; via intravitreal administration into both eyes once on Day 1 (at 0 hours); or via subcutaneous administration 2 times daily on Days 1 and 2 (at 0 and 8 hours) and once daily on Day 3 (at 0 hours). Doses were given within an approximately 1 hour window each day where applicable.
Each blood sample was collected on Day 3 post dose at pre-determined time points from the rabbits via an ear vessel and placed into chilled polypropylene tubes containing sodium heparin as an anticoagulant. Samples were spun by centrifuge at 4° C. and 3,000×g for 5 minutes. Samples were maintained chilled throughout processing. Each plasma sample was placed on dry ice and stored in a freezer at −60° C. to −80° C. pending bioanalysis.
An LC-MS/MS method was developed for the determination of Compound 1 in rabbit aqueous tissues (plasma, aqueous and vitreous humor) and solid ocular tissue samples. A pre-study standard curve was analyzed to determine the specificity, range, and lower limit of quantitation of the method. Plasma and tissue homogenate study samples were extracted and analyzed. All the samples were treated identically to the standards.
One eight-point standard curve was used in each analytical batch. To be accepted, each batch must have had at least five of eight standards with accuracy within ±20% of nominal, except at the lower limit of quantification (LLOQ), where ±25% was acceptable.
Pharmacokinetic parameters were calculated from the time course of the plasma concentration. The maximum plasma concentration (Cmax) and time to the maximum plasma drug concentration (Tmax) were the observed values for each concentration-time profiles. The area under the plasma drug concentration-time curve (AUClast, with last being from time 0 to the last quantifiable point) was calculated using the trapezoidal formula. The mean residence time MRTlast was calculated as a ratio of AUMClast (area under the first movement curve) to AUClast.

The nature of data set [2]: Ocular abnormalities in the ocular pharmacokinetics study. The class given is in vivo, New Zealand White rabbits. Particulars: all dose groups (topical ocular, subcutaneous, intravitreal). How it is done:
Pre-screening clinical ophthalmic exams were done prior to study (includes slit-lamp biomicroscopy and indirect ophthalmoscopy). Ocular findings were scored using the McDonald-Shadduck Score System, and only animals that scored zero in all categories were used in the study.
Concentration versus time data is plotted in FIGS. 3-16. All data are expressed as ng/g of the free drug. Samples that were below the limit of quantitation (0.2 ng/mL) were not used in the calculation of averages.

The mark [3] stands for this setting: New Zealand White, rabbit, other: intravitreal, 1.54 mg/kg, intravitreal 2.5 mg/eye (~1.54 mg/kg), suspension.
[4] abbreviates: New Zealand White, rabbit, other: intravitreal, 2.5 mg, intravitreal 2.5 mg/eye (~1.54 mg/kg), suspension.
Where [5] appears, read: New Zealand White, rabbit, other: intravitreal, 2.5 mg/eye, intravitreal 2.5 mg/eye (~1.54 mg/kg), suspension, read-out: plasma Average.
Setting [6] is: New Zealand White, rabbit, other: intravitreal, 2.5 mg/eye, intravitreal 2.5 mg/eye (~1.54 mg/kg), suspension, read-out: plasma Conc., individual rabbit.
Setting [7] is: New Zealand White, rabbit, sc, 5 mg/kg, subcutaneous 5 mg/kg/dose, suspension.
Where [8] appears, read: New Zealand White, rabbit, subcutaneous, 5 mg/kg/dose, subcutaneous 5 mg/kg/dose, suspension, read-out: plasma Average.
Setting [9] is: New Zealand White, rabbit, subcutaneous, 5 mg/kg/dose, subcutaneous 5 mg/kg/dose, suspension, read-out: plasma Conc., individual rabbit.
Setting [10] is: intravitreal suspension, normalized by 1.54 mg/kg.
Setting [11] is: subcutaneous suspension, normalized by 5 mg/kg.

For the compound `COC(=O)N[C@@H](Cc1ccccc1)C(=O)N[C@@H](Cc1ccc(NS(=O)(=O)O)cc1)c1csc(-c2cccs2)n1` [Compound 1 free acid], in data set [1] (setting [3]), the total exposure AUC(0-inf) (commonly the area under the concentration-time curve extrapolated to infinity) is 746 ng·h/mL; the maximum concentration (Cmax) (as a rule, the peak of the concentration-time curve) turned out to be 25.3 ng/mL; the MRT last (commonly a mean duration of stay, worked out from the concentration-time curve) was determined as 19.1 h; the half-life (as a rule, the time needed for the level to fall by half in the phase considered) was 16.5 h. Besides, the AUC(0-t) in data set [1] (setting [3]) worked out at 707 ng·h/mL. The Tmax – broadly, the time at which the peak concentration occurs – in data set [1] (New Zealand White, rabbit, other: intravitreal, 1.54 mg/kg, intravitreal 2.5 mg/eye (~1.54 mg/kg), suspension, read-out: tmax) was determined as 1 h. In data set [1] (setting [4]), this compound had an AUC(0-inf) of 746 ng·h/mL, a Cmax of 25.3 ± 9.3 ng/mL, an MRT last of 19.1 h and a half-life of 16.5 h. The AUC(0-t) in data set [1] (setting [4]) was 707 ± 53.1 ng·h/mL. In addition, the Tmax in data set [1] (New Zealand White, rabbit, other: intravitreal, 2.5 mg, intravitreal 2.5 mg/eye (~1.54 mg/kg), suspension, read-out: tmax) was 1 h. For the same compound, in data set [1] (New Zealand White, rabbit, other: intravitreal, 2.5 mg/eye, intravitreal 2.5 mg/eye (~1.54 mg/kg), suspension, 1.0 hr, read-out: plasma Average), the concentration at 1 h turned out to be 25.3 ng/mL. Besides, in data set [1] (setting [5]), the concentration at 3 h is 24.4 ng/mL, the concentration at 6 h was found to be 23.1 ng/mL, the concentration at 24 h came out at 12.3 ng/mL and the concentration at 48 h came to 3.63 ng/mL. Moreover, the concentration at 72 h in data set [1] (setting [5]) was found to be 1.65 ng/mL. For the same compound, in data set [1] (setting [6]), the concentration at 3 h was determined as 28.4 ng/mL, the concentration at 6 h came out at 22 ng/mL, the concentration at 24 h was 9.96 ng/mL and the concentration at 48 h was 2.69 ng/mL. Also, the concentration at 72 h in data set [1] (setting [6]) worked out at 1.83 ng/mL. Besides, in data set [1] (setting [7]), the AUC(0-t) was found to be 864 ± 69 ng·h/mL, the AUC(0-inf) came to 1200 ng·h/mL, the Cmax worked out at 395 ± 170 ng/mL and the MRT last turned out to be 1.58 h. Moreover, the half-life in data set [1] (setting [7]) was 2.12 h. The Tmax in data set [1] (New Zealand White, rabbit, sc, 5 mg/kg, subcutaneous 5 mg/kg/dose, suspension, read-out: tmax) is 0.25 h. In data set [1] (New Zealand White, rabbit, sc, 5 mg/kg, subcutaneous administration, suspension, read-out: Mean plasma Tmax (converted)), the Tmax is 0.25 h. In data set [1] (New Zealand White, rabbit, subcutaneous, 5 mg/kg/dose, subcutaneous 5 mg/kg/dose, suspension, 0.25 hr, read-out: plasma Average), the concentration at 0.25 hr came to 395 ng/mL. For the same compound, in data set [1] (setting [8]), the concentration at 0.5 hr was determined as 337 ng/mL, the concentration at 2 hr came out at 206 ng/mL and the concentration at 4 hr amounted to 110 ng/mL. In addition, in data set [1] (setting [9]), the concentration at 0.5 hr worked out at 272 ng/mL, the concentration at 2 hr worked out at 194 ng/mL and the concentration at 4 hr was 111 ng/mL. Further, in data set [1] (New Zealand White, rabbit, subcutaneous, 5 mg/kg/dose, subcutaneous 5 mg/kg/dose, suspension, 1.0 hr, read-out: plasma Average), the concentration at 1 hr amounted to 295 ng/mL. The concentration at 1 hr in data set [1] (New Zealand White, rabbit, subcutaneous, 5 mg/kg/dose, subcutaneous 5 mg/kg/dose, suspension, 1.0 hr, read-out: plasma Conc., individual rabbit) amounted to 300 ng/mL. In data set [1] (setting [10]), the “Dose normalized AUClast” value was determined as 459 kg·ng·h/mL/mg and the “Dose normalized AUC∞” value stood at 484 kg·ng·h/mL/mg. Moreover, in data set [1] (intravitreal suspension, normalized by 1.54 mg/kg, listed as Compound 1 (free acid)), the “Dose normalized AUClast” value worked out at 459 ± 34.5 kg·ng·h/mL/mg. In data set [1] (setting [11]), the “Dose normalized AUClast” value was determined as 173 kg·ng·h/mL/mg and the “Dose normalized AUC∞” value amounted to 240 kg·ng·h/mL/mg. The “Dose normalized AUClast” value in data set [1] (subcutaneous suspension, normalized by 5 mg/kg, listed as Compound 1 (free acid)) worked out at 173 ± 13.8 kg·ng·h/mL/mg.
For the compound `COC(=O)N[C@@H](Cc1ccccc1)C(=O)N[C@@H](Cc1ccc(NS(=O)(=O)O)cc1)c1csc(-c2cccs2)n1` [Compound 1], the ocular abnormalities entry in data set [2] is on record as “No ocular abnormalities”.

These data come from patent US11666558B2, “Methods of treating intraocular pressure with activators of Tie-2” (EyePoint Pharmaceuticals, Inc., priority 2015, dated 2023).
